The test system of experiment [1] is SVYDFFVWL (TRP-2 180-188) reactive T cells. The experiment in a line: T cell activation time course assay, IFNγ production (FACS), TRP-2 epitope. The following applies: for % CD8+ T cells producing IFN-γ peptide concentrations in picomolar 24H 0.5 / Geometric mean IFN-γ in arbitrary fluorescence units peptide concentrations in picomolar 24H 0.5 / % CD8+ T cells producing IFN-γ peptide concentrations in picomolar 48H 0.5 / Geometric mean IFN-γ in arbitrary fluorescence units peptide concentrations in picomolar 48H 0.5: peptide 0.5 pM; for % CD8+ T cells producing IFN-γ peptide concentrations in picomolar 24H 50 / Geometric mean IFN-γ in arbitrary fluorescence units peptide concentrations in picomolar 24H 50 / % CD8+ T cells producing IFN-γ peptide concentrations in picomolar 48H 50 / Geometric mean IFN-γ in arbitrary fluorescence units peptide concentrations in picomolar 48H 50: peptide 50 pM; for % CD8+ T cells producing IFN-γ peptide concentrations in picomolar 24H 5·10^3 / Geometric mean IFN-γ in arbitrary fluorescence units peptide concentrations in picomolar 24H 5·10^3 / % CD8+ T cells producing IFN-γ peptide concentrations in picomolar 48H 5·10^3 / Geometric mean IFN-γ in arbitrary fluorescence units peptide concentrations in picomolar 48H 5·10^3: peptide 5·10^3 pM.

For a further experiment, the target named is HLA-A0201 (Homo sapiens, UniProt P04439, D140Y/D185E/D98H/E176V/E277Q/G131W/G231S/I119V/I121R/I166T/I218V/L300P/L318F/N151K/N90K/P208A/P217A/Q86G/Q94H/R138H/R169H/T345S). In kind it is binding.

The values below come from patent publication EP2649091B1, “IMMUNE RESTRICTED PEPTIDES WITH INCREASED EFFICACY” (Stichting Het Nederlands Kanker Instituut, priority 2010, dated 2012).

On to [am-phg][NVA]YDFFVW[PRG], for which, in experiment [1], the “% CD8+ T cells producing IFN-γ peptide concentrations in picomolar 24H 0.5” value is listed as 0%, the “Geometric mean IFN-γ in arbitrary fluorescence units peptide concentrations in picomolar 24H 0.5” value (from here on “Geometric mean IFN-γ … in picomolar 24H 0.5”) is reported as 64 arbitrary fluorescence units, the “% CD8+ T cells producing IFN-γ peptide concentrations in picomolar 24H 50” value is recorded as 7% and the “Geometric mean IFN-γ in arbitrary fluorescence units peptide concentrations in picomolar 24H 50” value (from here on “Geometric mean IFN-γ … in picomolar 24H 50”) is 77 arbitrary fluorescence units. For the same substance, in experiment [1], the “% CD8+ T cells producing IFN-γ peptide concentrations in picomolar 24H 5·10^3” value stood at 26%, the “Geometric mean IFN-γ in arbitrary fluorescence units peptide concentrations in picomolar 24H 5·10^3” value (“Geometric mean IFN-γ … in picomolar 24H 5·10^3” for short) is reported as 181 arbitrary fluorescence units, the “% CD8+ T cells producing IFN-γ peptide concentrations in picomolar 48H 0.5” value amounted to 0% and the “Geometric mean IFN-γ in arbitrary fluorescence units peptide concentrations in picomolar 48H 0.5” value (“Geometric mean IFN-γ … in picomolar 48H 0.5” for short) is 71 arbitrary fluorescence units. Also, in experiment [1], the “% CD8+ T cells producing IFN-γ peptide concentrations in picomolar 48H 50” value amounted to 1%, the “Geometric mean IFN-γ in arbitrary fluorescence units peptide concentrations in picomolar 48H 50” value (from here on “Geometric mean IFN-γ … in picomolar 48H 50”) is reported as 57 arbitrary fluorescence units, the “% CD8+ T cells producing IFN-γ peptide concentrations in picomolar 48H 5·10^3” value worked out at 23% and the “Geometric mean IFN-γ in arbitrary fluorescence units peptide concentrations in picomolar 48H 5·10^3” value (“Geometric mean IFN-γ … in picomolar 48H 5·10^3” for short) is 132 arbitrary fluorescence units. For the same substance, on HLA-A0201, the “% inhibition at T=4H and T=24H FP 4h” value is 88%; the “% inhibition at T=4H and T=24H FP 24h” value amounted to 80%.

Take [CSME][CpALA]YDFFVW[PRG]: in experiment [1], the “% CD8+ T cells producing IFN-γ peptide concentrations in picomolar 24H 0.5” value is recorded as 1%, the “Geometric mean IFN-γ … in picomolar 24H 0.5” value is reported as 69 arbitrary fluorescence units, the “% CD8+ T cells producing IFN-γ peptide concentrations in picomolar 24H 50” value came to 5% and the “Geometric mean IFN-γ … in picomolar 24H 50” value is 73 arbitrary fluorescence units. Moreover, in experiment [1], the “% CD8+ T cells producing IFN-γ peptide concentrations in picomolar 24H 5·10^3” value is given as 27%, the “Geometric mean IFN-γ … in picomolar 24H 5·10^3” value was 147 arbitrary fluorescence units, the “% CD8+ T cells producing IFN-γ peptide concentrations in picomolar 48H 0.5” value was 0% and the “Geometric mean IFN-γ … in picomolar 48H 0.5” value was 58 arbitrary fluorescence units. For the same substance, in experiment [1], the “% CD8+ T cells producing IFN-γ peptide concentrations in picomolar 48H 50” value is given as 1%, the “Geometric mean IFN-γ … in picomolar 48H 50” value is recorded as 68 arbitrary fluorescence units, the “% CD8+ T cells producing IFN-γ peptide concentrations in picomolar 48H 5·10^3” value turned out to be 14% and the “Geometric mean IFN-γ … in picomolar 48H 5·10^3” value is 105 arbitrary fluorescence units. On HLA-A0201, the “% inhibition at T=4H and T=24H FP 4h” value is 85%; the “% inhibition at T=4H and T=24H FP 24h” value came to 83%.

In the case of [PHG][NVA]YDFFVW[PRG], in experiment [1], the “% CD8+ T cells producing IFN-γ peptide concentrations in picomolar 24H 0.5” value is reported as 1%, the “Geometric mean IFN-γ … in picomolar 24H 0.5” value is on record as 89 arbitrary fluorescence units, the “% CD8+ T cells producing IFN-γ peptide concentrations in picomolar 24H 50” value stood at 6% and the “Geometric mean IFN-γ … in picomolar 24H 50” value is 73 arbitrary fluorescence units. For the same substance, in experiment [1], the “% CD8+ T cells producing IFN-γ peptide concentrations in picomolar 24H 5·10^3” value turned out to be 33%, the “Geometric mean IFN-γ … in picomolar 24H 5·10^3” value is listed as 183 arbitrary fluorescence units, the “% CD8+ T cells producing IFN-γ peptide concentrations in picomolar 48H 0.5” value is recorded as 0% and the “Geometric mean IFN-γ … in picomolar 48H 0.5” value is 66 arbitrary fluorescence units. In addition, in experiment [1], the “% CD8+ T cells producing IFN-γ peptide concentrations in picomolar 48H 50” value stood at 1%, the “Geometric mean IFN-γ … in picomolar 48H 50” value is listed as 61 arbitrary fluorescence units, the “% CD8+ T cells producing IFN-γ peptide concentrations in picomolar 48H 5·10^3” value was determined as 21% and the “Geometric mean IFN-γ … in picomolar 48H 5·10^3” value was 139 arbitrary fluorescence units. For the same substance, on HLA-A0201, the “% inhibition at T=4H and T=24H FP 4h” value was determined as 83%; the “% inhibition at T=4H and T=24H FP 24h” value turned out to be 78%.

One may read the % inhibition as the percentage by which the read-out fell short of the control. Lower therefore signals a weak effect.
